Measurements: patent US7318917B2, “Rapid assays for neurotransmitter transporters” (Vanderbilt University, priority 2002, dated 2008)

How the values were obtained:
DAT [1] = molecular target: T1, DAT (Homo sapiens, UniProt Q01959); experiment: ASP+ accumulation in hDAT-transfected HEK cells by confocal fluorescence microscopy; assay type: cell-based; set-up: expressed in transfected cells; host or cells: HEK-293; conditions: 2 mM ASP as printed in the FIG. 3 legend
Method: (§1) FIGS. 3A-3L. Monoamine transporters interact with ASP^+. Like HEK-hNET cells hDAT and hSERT transfected cells accumulate ASP^+. hNET (FIGS. 3A, 3B & 3C), hDAT (FIGS. 3D, 3E & 3F), hSERT (FIGS. 3G, 3H & 3I) and HEK-293 (FIGS. 3J, 3K & 3L) were exposed to 2 mM ASP for the times indicated in FIGS. 3J, 3K & 3L. The color gradient represented in FIG. 3J denotes the corresponding ASP^+ intensity values.
(§2) HEK-hNET cells were plated on 35 mm glass bottom Petri-dishes (MatTek, Ashland, Mass.) coated with poly-L-lysine three days prior to experimentation. The culture medium was aspirated, cells were immediately mounted on a Zeiss 410 confocal microscope and the microscope was focused on the center of the monolayer of cells. During the confocal measurment cells remain without buffer for approximately thirty seconds. Background autoflourescence was established by collecting images for ten seconds prior to the addition of KRH (see Radiolabeled Transport),[…] Glucose, 10 μM ascorbic acid, 10 μM pargalyine, 10 μM tropolone (Sigma, Boulder CO), and ASP^+. […] The effects of photobleaching on ASP^+ accumulation were determined by examining the rate of ASP^+ fluorescence at various acquisition rates. […]
(§3) The fluorescent images were processed using MetaMorph imaging software (Universal Imaging Corporation, Downington Pa.). […] All cells are subtracted against auto-fluorescence.

SERT [2] = molecular target: T2, SERT (Homo sapiens, UniProt P31645); experiment: ASP+ accumulation in hSERT-transfected HEK cells by confocal fluorescence microscopy; assay type: cell-based; conditions: 2 mM ASP as printed in the FIG. 3 legend
T2 construct: expressed in transfected cells
T2 sequence (P31645 whole entry): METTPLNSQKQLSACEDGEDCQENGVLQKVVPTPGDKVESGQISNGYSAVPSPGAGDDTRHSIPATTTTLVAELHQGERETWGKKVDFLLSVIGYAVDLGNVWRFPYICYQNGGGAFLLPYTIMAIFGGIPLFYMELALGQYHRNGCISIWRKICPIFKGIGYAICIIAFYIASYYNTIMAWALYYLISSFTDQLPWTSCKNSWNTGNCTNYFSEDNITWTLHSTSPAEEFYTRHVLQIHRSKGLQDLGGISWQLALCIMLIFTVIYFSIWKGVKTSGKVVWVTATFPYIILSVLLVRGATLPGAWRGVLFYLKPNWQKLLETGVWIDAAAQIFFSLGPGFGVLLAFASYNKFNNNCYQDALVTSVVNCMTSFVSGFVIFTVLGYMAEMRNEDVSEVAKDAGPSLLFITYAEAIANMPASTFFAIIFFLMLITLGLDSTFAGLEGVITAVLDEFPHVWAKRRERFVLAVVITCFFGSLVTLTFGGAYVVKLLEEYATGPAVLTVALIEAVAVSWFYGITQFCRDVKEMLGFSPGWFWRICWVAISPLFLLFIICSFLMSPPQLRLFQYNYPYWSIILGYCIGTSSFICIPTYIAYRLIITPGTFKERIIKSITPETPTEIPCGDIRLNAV
Method: as §1, §2, §3

NET [3] = molecular target: T3, NET (Homo sapiens, UniProt P23975); experiment: Fluorescence anisotropy of ASP+ in HEK-hNET cells; assay type: cell-based; set-up: expressed in transfected cells
T3 sequence (P23975 whole entry): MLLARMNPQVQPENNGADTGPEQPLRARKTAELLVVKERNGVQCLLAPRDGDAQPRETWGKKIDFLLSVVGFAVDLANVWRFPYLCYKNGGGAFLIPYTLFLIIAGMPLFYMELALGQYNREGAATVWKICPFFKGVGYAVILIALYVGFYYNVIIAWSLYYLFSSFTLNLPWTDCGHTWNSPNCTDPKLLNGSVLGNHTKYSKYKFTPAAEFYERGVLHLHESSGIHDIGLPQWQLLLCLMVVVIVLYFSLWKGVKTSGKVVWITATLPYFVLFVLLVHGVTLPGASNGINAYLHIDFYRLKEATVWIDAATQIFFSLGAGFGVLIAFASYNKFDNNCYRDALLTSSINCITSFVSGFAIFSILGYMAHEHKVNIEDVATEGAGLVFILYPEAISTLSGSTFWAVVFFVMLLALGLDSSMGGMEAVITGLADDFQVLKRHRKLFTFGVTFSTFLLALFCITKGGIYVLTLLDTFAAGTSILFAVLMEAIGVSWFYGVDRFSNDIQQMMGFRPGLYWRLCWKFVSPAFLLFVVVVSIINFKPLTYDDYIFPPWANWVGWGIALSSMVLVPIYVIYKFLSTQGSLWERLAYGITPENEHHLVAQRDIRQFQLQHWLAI
Method: To evaluate ASP^+ binding to the surface membranes, HEK-hNET cells were exposed to 2 μM ASP^+ with horizontal polarizer (FIG. 5C), with the polarizer rapidly switching to the vertical position. Cells were imaged with alternating polarizations for 3 minutes to measure light intensity in the horizontal (Ih) and vertical (Iv) positions in order to calculate the anisotropy ratio, r=(Iv−gIh)/(Iv+2 g Ih). The factor g was determined by using a half wave plate as described by Blackman et al. (1996). In this formulation, r =0.4 implies an immobile source (Smith et al., 1999). Surface anisotropy was measured from the cell circumference, taken as 1 pixel width. Cytosolic anisotropy was measured near the center of the cell, approximately 5 pixel widths from the membrane.
Notice that rapid accumulation, which peaks at the cell edges (arrows), remains essentially constant between 3 and 180 sec., whereas brightness at the cell center (between arrows) gradually increases over this same period. Furthermore, accumulation at the center occurs at the same rate as phase II (compare phase II slope in FIG. 4 with center elevation in FIG. 5A). […] To test this interpretation the inventors measured the anisotropy of light from cell edges and cell centers.

NET [4] = molecular target: T3, NET; experiment: [3H]NE accumulation (radiolabeled transport assay) in hNET-transfected HEK-293 cells; assay type: cell-based; set-up: expressed in transfected cells; conditions: Cheng-Prusoff correction, non-specific by 10 μM desipramine, N=5, mean±S.E.M., read-out: Ki, inhibition of [3H]NE accumulation
Method: FIG. 1. MPP^+ and ASP^+ inhibit NE accumulation. [^3H]NE accumulation was measured in the hNET-transfected HEK-293 cells in the presence of increasing concentrations of ASP^+ or MPP^+ and normalized to similar data in the absence of an inhibitor. […]. The data were fit to NE transport remaining by the equation y=100/(1+([I]/IC50)^n), where [I] is the concentration of ASP^+ or MPP^+ and Ki values were determined using Cheng-Prusoff correction for substrate concentration. […] Values are represented as means±S.E.M., N=5.
All accumulation studies were performed at room temperature (22° C.) unless otherwise indicated. HEK-hNET cells were plated on poly-L-lysine coated 24-well tissue culture plates at 10^5 cells per well three days prior to performing transport assays. The cells were at approximately 90% confluence on the third day. The medium was removed by aspiration. Cells were then pre-incubated for 10 min in Krebs-Ringer's-Hepes (KRH: in mM 130 NaCl, 1.3 KCl, 2.2 CaCl2, 1.2 MgSO4, 1.2 KH2PO4, 10 Hepes, and 1.8 g/L glucose, pH 7.4) medium with or without 10 μM desipramine. […]. Pargyline (10 μM) and ascorbic acid (10 μM) were added to prevent metabolism and oxidation of NE, respectively. The assay mixture was aspirated after 10 minutes and cells were washed three times with 4° C. […] Accumulated [^3H]NE was determined by liquid scintillation of 1% (w/v) sodium dodecylsulphate solubilized cells. […]

SERT [5] = molecular target: T2, SERT; experiment: ASP+ uptake assay on FLEXstation, SERT-transfected HEK-293 cells; assay type: cell-based; conditions: FIG. 10C
Method: HEK-293 cells (American Type Culture Collection, Manassas, Va.) and HEK-293 cells stably transfected with SERT, NET, or DAT (Qian et al, 1997) were maintained in monolayer culture at 37° C., 5% CO2 in Dulbecco's modified Eagle's medium (DMEM) containing 10% fetal bovine serum, 2 mM glutamine, 100 units/ml penicillin, and 100 μg/ml streptomycin. Medium for the transfected lines was supplemented with G418 (250 μg/ml). Trypsin, glutamine, penicillin, streptomycin, G418, and phosphate-free DMEM were purchased from Life Technologies, Inc. or obtained from the Vanderbilt Media Core. For all transport assays, cells were plated on poly-D-lysine (0.1 mg/ml)-coated (0.1 mg/ml)-coated 96-well plates. […]
To limit the time delay between the addition of ASP^+ and the measurement of accumulation of ASP^+ during the kinetic assays, plates were divided in half and assayed one half at a time. […] After incubation, ASP^+ was added to the first 6 columns in 20 μL aliquots at indicated concentrations and accumulated fluorescence measured and recorded over time by the FLEXStation ultilizing SoftMax Pro Software. Then, ASP^+ was added to the last 6 columns and fluorescence accumulation measured and recorded. […]
Endpoint assays were conducted to evaluate the sensitivity of ASP^+ uptake to transporter antagonists. […] ASP^+ accumulation was measured after 10 minutes. […]

NET [6] = molecular target: T3, NET; experiment: ASP+ accumulation in HEK-hNET cells by confocal fluorescence microscopy (phase I binding, phase II transport); set-up: NET-mediated ASP accumulation after pre-incubation (endocytosis test): dose or concentration left out as unconfirmed; conditions: for phase II (ASP+ transport) slope in the presence of the agent: 10 min pre-incubation with 10 μM cocaine or 30 μM NE; for phase II (ASP+ transport) slope in the presence of the agent / phase I (ASP+ binding) slope in the presence of the agent: then 2 μM ASP+, gramicidin 10 mg/mL 15 min before ASP+; for phase I (ASP+ binding) slope in the presence of the agent: 10 min pre-incubation with 10 μM desipramine, 10 μM cocaine or 30 μM NE
DAT [7] = molecular target: T1, DAT; experiment: ASP+ uptake assay on FLEXstation, DAT-transfected HEK-293 cells; assay type: cell-based; set-up: expressed in transfected cells; conditions: FIG. 10B
Method: (§4) Medium for the transfected lines was supplemented with G418 (250 μg/ml). Trypsin, glutamine, penicillin, streptomycin, G418, and phosphate-free DMEM were purchased from Life Technologies, Inc. or obtained from the Vanderbilt Media Core. For all transport assays, cells were plated on poly-D-lysine (0.1 mg/ml)-coated (0.1 mg/ml)-coated 96-well plates. HEK cells were plated at 12,500 cells per well in 96 well plates, HEK-DAT cells were plated at 15,000 cells per well, HEK-NET cells were plated at 20,000 per well, and HEK-SERT cells were plated at 20,000 per well in a volume of 200 uL. HEK, HEK-DAT, and HEK-SERT cells were grown for 48 hours and HEK-NET cells were grown for 72 hours to a confluency of ˜90%.
(§5) ASP^+ was obtained from Molecular Probes, Inc. and dissolved in KRH buffer to indicated concentrations. Trypan Blue was obtained from Sigma as a 0.4% solution and diluted to a final concentration of 30 uM in KRH buffer.
(§6) To limit the time delay between the addition of ASP^+ and the measurement of accumulation of ASP^+ during the kinetic assays, plates were divided in half and assayed one half at a time. At assay, the medium was removed from wells in the first 6 columns by aspiration, and the cells were incubated with Trypan Blue in KRH buffer for 20 minutes at 37° C.in room air. Then, medium was removed from the wells in the last 6 columns and replaced with Trypan Blue in KRH buffer.

NET [8] = molecular target: T3, NET; assay type: cell-based; set-up: expressed in transfected cells; conditions: FLEXstation, FIG. 10A
Method: as §4, §5, §6

NET [9] = assay type: cell-based; conditions: 2 μM ASP+, 10 min pre-incubation with 10 μM desipramine
Method: SCG neurons were dissociated by trituration followed by digestion with 0.25% trypsin and 0.3% collagenase. Non-neuronal cells were removed by preplating on uncoated, Falcon 60 mm plates. Neurons were cultured on poly-L-ornithine/laminin/poly D-lysine coated MatTek Dishes at a density of 3000-4000 cells/well in F-14^+ media containing 5% fetal calf serum, 2 mM L-glutamine, 60 ng/ml progesterone, 16 mg/ml putrescine, 400 ng/ml L-thyroxine, 38 ng/ml sodium selenite, 340 ng/ml tri-iodothyroxine, 5 mg/ml insulin, penicillin/streptomycin, 10 μM fluorodeoxyuridine and 20 ng/ml NGF. The neurons were maintained for 3-5 days in the presence of NGF before use.
The interactions of ASP^+ with NET in primary tissue culture neurons were also examined.

OCT = conditions: 10 μM; cited from earlier work

T1 sequence (Q01959 whole entry): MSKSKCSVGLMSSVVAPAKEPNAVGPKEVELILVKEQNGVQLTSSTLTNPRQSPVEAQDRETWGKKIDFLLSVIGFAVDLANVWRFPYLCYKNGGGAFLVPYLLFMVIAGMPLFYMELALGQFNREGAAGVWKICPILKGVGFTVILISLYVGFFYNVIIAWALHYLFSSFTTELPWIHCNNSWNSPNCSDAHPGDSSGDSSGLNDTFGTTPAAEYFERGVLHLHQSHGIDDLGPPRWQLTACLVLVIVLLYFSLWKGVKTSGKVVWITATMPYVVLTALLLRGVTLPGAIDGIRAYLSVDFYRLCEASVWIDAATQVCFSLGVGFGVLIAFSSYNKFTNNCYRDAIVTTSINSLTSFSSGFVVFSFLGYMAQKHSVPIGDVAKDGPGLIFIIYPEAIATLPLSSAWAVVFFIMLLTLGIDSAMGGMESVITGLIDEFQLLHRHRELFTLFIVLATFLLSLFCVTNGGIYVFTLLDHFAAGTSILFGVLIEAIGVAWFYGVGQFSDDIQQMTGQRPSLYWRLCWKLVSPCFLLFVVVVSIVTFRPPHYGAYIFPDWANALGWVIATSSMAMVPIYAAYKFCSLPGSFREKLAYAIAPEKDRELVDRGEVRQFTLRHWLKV

CN(C)c1ccc(C=Cc2cc[n+](C)cc2)cc1 [ASP^+, 4-(4-dimethylaminostyrl)-N-methylpyridinium]
ASP+ accumulation by hDAT transfected cells (DAT [1]): accumulate | ASP+ accumulation by hSERT transfected cells (SERT [2]): accumulate | fluorescence anisotropy, solution ASP+ (NET [3]): 0.15 | Ki (NET [4]): 780 ± 77 nM | concentration-response of ASP+ accumulation, SERT (SERT [5]): concentration-dependent accumulation | ASP+ accumulation by cells expressing NET (NET [6]; 800 nM ASP+, images at 0, 3 and 180 seconds): accumulate | Phase I n (NET [6]; exponent n of the phase I fit): 1.15±0.30 | Phase II n (NET [6]; exponent n of the phase II fit): 1.51±0.35 | Phase I Vmax (NET [6]; phase I (ASP+ binding) slope as a function of ASP+ concentration): 10.5±0.94 AFUs/sec | potency of ASP+ accumulation for hNET (NET [6]; summary statement): sub-μM potency | concentration-response of ASP+ accumulation, DAT (DAT [7]): concentration-dependent accumulation | concentration-response of ASP+ accumulation, NET (NET [8]): concentration-dependent accumulation

C[n+]1ccc(-c2ccccc2)cc1 [MPP^+]
Ki (NET [4]): 600 ± 67 nM

NC[C@H](O)c1ccc(O)c(O)c1 [NE]
phase II (ASP+ transport) slope in the presence of the agent (NET [6]): reduced | phase I (ASP+ binding) slope in the presence of the agent (NET [6]): insignificant | effect on ASP+ accumulation in hNET-expressing HEK cells (NET [6]; summary statement): competed for

CNCCCN1c2ccccc2CCc2ccccc21 [desipramine]
sensitivity of ASP+ accumulation in SCG cells to desipramine (NET [9]): desipramine sensitive | effect on OCT activity (OCT): without affecting

OC[C@H]1O[C@@](CO)(O[C@H]2O[C@H](CO)[C@@H](O)[C@H](O)[C@H]2O)[C@@H](O)[C@@H]1O [sucrose]
NET-mediated ASP accumulation after pre-incubation (endocytosis test) (NET [6]; thirty-minute pre-incubation): unaffected

Gramicidin
phase II (ASP+ transport) slope in the presence of the agent (NET [6]): reduces the slope | phase I (ASP+ binding) slope in the presence of the agent (NET [6]): reduces the slope
